Data from patent publication US20230271925A1, “NOVEL TNF ACTIVITY INHIBITOR COMPOUND, AND PHARMACEUTICALLY ACCEPTABLE SALT THEREOF” (ILAB, priority 2020, published 2023).
Marks after values point to notes of the source that are not given here. Blank lines part the entries; values can stand above or below the compound they belong to.

Experiments:
[1] = test system: TNF-induced death of C57BL/6 mice; experiment: TNF-induced mouse lethality assay; format: in vivo; details: for Survival (%): C57BL/6 male mice, 20 or 40 mg/kg p.o. 30 min before hTNF 8 μg/kg + D-galactosamine 700 mg/kg i.p., 24 hours; for survival rate of mice compared to the control group: C57BL/6 mice, pre-treated p.o., TNF + D-galactosamine
Method: In this experiment, the TNF-induced mouse death inhibition activity by the compound of the present invention was investigated. To this end, mice were pretreated with the compound of the present invention, and the survival rate of the mice was measured against TNF-induced death.
In particular, after C57BL/6 mice were fasted for 24 hours, 100 μL of the compounds of Examples 2, 32, 39, 40, 44, 47, and 48 in a buffer composition of 10% DMSO in 90% PBS was orally administered at a concentration of 20 or 40 mg/kg. After 30 minutes, a mixed solution of human recombinant TNF 8 μg/kg and D-galactosamine 700 mg/kg in PBS buffer was intraperitoneally administered at 100 μL per mouse, the survival rate of mice was measured every 3 hours from the time of intraperitoneal administration and the experiment was terminated 24 hours later. The mice were divided into 5 groups, the experiment was repeated 5 times, and the Example compounds used for each experiment are as shown in FIG. 7(a, b).

RIP1 = RIP1 ubiquitination, immunoprecipitation with TNFR1 in human peripheral blood T cells; format: cell-based; details: compound 0.1 μM 24 hours, then TNF 10 minutes, vs hTNF alone
Method: Two experiments were conducted to examine the TNF-cell signal transduction inhibitory activity by the compound of the present invention. First, immunoprecipitation was performed to evaluate the ubiquitination of an upstream protein of the TNF signaling pathway, that is, RIP1.
In particular, human peripheral blood T cells were treated with the compound of Example 48 (0, 0.1 μM) for 24 hours followed by with TNF for 10 minutes, and then immunoprecipitation was performed with TNFR1 protein.

HEK-Blue TNF cells = experiment: Inhibition of TNF response in HEK-Blue TNF cells (SEAP reporter gene assay); format: cell-based; details: Homo sapiens, TNF 0.2 ng/mL, absorbance 620 nm
Method: In this experiment, the TNF-inhibitory activity of the compound of the present invention was evaluated in HEK-Blue TNF cells. To this end, the transformed HEK-Blue TNF cells that respond specifically to the binding of TNF to TNFRs on the cell surface were treated with the compound of Example 48, followed by a reporter gene assay.
HEK-Blue TNF cells are human embryonic kidney cells that were transformed to express SEAP (secreted embryonic alkaline phosphatase) reporter gene having the binding site for activated NF-κB when TNF binds to TNFR on the cell surface and NF-κB is activated in the cell. […]
An experimental method was used in which SEAP, a reporter gene having the binding site for activated NF-κB in the intracellular signal transduction process, is expressed when human embryonic kidney cells, HEK-Blue TNF cells, are treated with recombinant TNF. In particular, SEAP is expressed when TNF (0.2 ng/mL) is added to HEK-Blue TNF cells, and the degree of color development is measured by treating the SEAP-specific QUANTI-Blue™ solution followed by reading absorbance at 620 nm to obtain IC50 value. The inhibition rate (%) of TNF was calculated by the following formula. […]
(§1) IC50 values were statistically calculated using Prism 6 (GraphPad).

[2] = test system: TNF-cell signal transduction pathway; experiment: TNF-cell signal transduction, Western blot in L929 cells; format: cell-based, mouse; details: hTNF 10 ng/ml + compound 0.01, 0.1, 1, 10 μM, vs hTNF alone
Method: Second, the inhibition of TNF signal transduction activity of Example 48 was confirmed. In order to examine the TNF-cell signal transduction inhibitory activity by the compound of the present invention, Western blot analysis was performed on proteins of the signal transduction pathway, namely phospho-p65, phospho-IKKα/β, phospho-SAPK/JNK, and phospho-AKT.
In particular, hTNF alone (10 ng/ml) or a mixture of hTNF and the compound of Example 48 (0.01, 0.1, 1, 10 μM) was incubated for 30 minutes, and then the incubated mixture was applied to mouse fibroblast L929 cells for 10 minutes. After the treatment, Western blot analysis was performed for phospho-p65, phospho-IKKα/β, phospho-SAPK/JNK, and phospho-AKT.

TNF-TNFR2 = TNF-TNFR2 (Homo sapiens, UniProt P01375); experiment: TNF-TNFR2 binding inhibition, FRET assay; details: for IC50: FRET (HTRF ratio), 0.25 nM TNF, 1 nM His-labeled TNFR2
Method: (§2) In this experiment, the inhibitory activity of the compound of the present invention was evaluated using a fluorescence resonance energy transfer (FRET) assay to measure the binding of TNF-TNFR1 or TNF-TNFR2.
(§3) In particular, biotin-labeled 0.25 nM TNF, XL-665-labeled streptavidin, 0.25 nM His-labeled TNFR1, 1 nM His-labeled TNFR2, and Europium-Gold-labeled anti-his Ab were used. First, each 2 μL (10% DMSO) of the compounds of Examples 48 and 51 was added in 384 wells. After 4 μL of 0.25 nM TNF was added, 4 μL of each of 0.25 nM His-labeled TNFR1 or 1 nM His-labeled TNFR2 was added thereto and incubated at room temperature for 1 hour. After 1 hour incubation, 5 μL of XL-665-labeled streptavidin and 5 μL of Europium-Gold-labeled anti-his Ab were added and further incubated at room temperature. […] was measured at 622 nm and 665 nm. The reagent used at this time was prepared by dissolving in PPI-europium detection buffer.
(§4) First, binding inhibitory activity of the compounds of the present invention to TNF and TNFR1 or TNFR2 was evaluated at a single concentration ([…]) of the compounds.
(§5) Then, IC50 values were obtained with the various concentrations of the compounds of Examples 48 and 51. At this time, the value was confirmed through the HTRF ratio, and the HTRF ratio was calculated by the following formula.
as §1

TNF-TNFR1 = TNF-TNFR1 (Homo sapiens, UniProt P01375); experiment: TNF-TNFR1 binding inhibition, FRET assay; details: for IC50: FRET (HTRF ratio), 0.25 nM TNF, 0.25 nM His-labeled TNFR1
Method: as §2, §3, §4, §5, §1

[3] = test system: mouse fibroblast L929 cells; experiment: TNF-induced apoptosis inhibitory activity in L929 cells (MTS assay); format: cell-based; details: TNF 20 ng/mL + actinomycin D, compound 0 to 40 μM, 24 hours, read-out: IC50, inhibition of TNF-induced apoptosis
Method: In this experiment, the TNF-induced apoptosis inhibitory activity by the compound of the present invention was investigated. To this end, mouse fibroblasts were treated with the chromenone and quinolone derivative compounds prepared in the above Examples, and then cell viability was measured by a conventionally known MTS assay.
Mouse fibroblast L929 cells were purchased from the American Type Culture Collection (ATCC Manassas, Va.), and then cultured in RPMI medium containing 10% Fetal Bovine Serum (FBS) and 1% antibiotics at the incubator in which 5% CO2 and humidity at 37° C. were maintained.
Mouse fibroblast L929 cells were treated with recombinant TNF and actinomycin D, a sensitizer, to induce apoptosis, with which an assay capable of confirming apoptosis inhibitory activity was established. In particular, apoptosis conditions were induced by adding actinomycin D as a sensitizer and TNF (20 ng/mL) to […], and then L929 cells were pretreated with the compounds of Examples 52, 54, and 55 at a concentration of 0 to 40 μM for 24 hours. After 24 hours, they were treated with MTS for 3 hours, and then the absorbance was measured at 490 nm to calculate IC50 values. % Inhibition of TNF was calculated by the following formula.
% Inhibition of TNF=(OD value of the group treated with the compound−OD value of the group treated with TNF and actinomycin D)/(OD value of the group treated with actinomycin D−OD value of the group treated with TNF and actinomycin D)×100
IC50 values were statistically calculated using Prism 6 (GraphPad) (IC50: 50% inhibitory concentration).

[4] = single concentration (10 PM), FIG. 4

Chain of TNF-TNFR1 (P01375 77-233 limits assumed): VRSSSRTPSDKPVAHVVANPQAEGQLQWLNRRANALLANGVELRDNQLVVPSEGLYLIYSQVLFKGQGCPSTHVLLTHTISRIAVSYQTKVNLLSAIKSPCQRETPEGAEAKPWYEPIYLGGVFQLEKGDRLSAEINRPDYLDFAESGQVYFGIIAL
Chain of TNF-TNFR2 (P01375 77-233 limits assumed): as above

SMILES: O=C(O)c1c(-c2cc(F)ccc2F)[nH]c2cc(Cl)ccc2c1=O [Example 2, 2-(2,5-difluorophenyl)-3-carboxy-7-chloro-4-(1H)-quinolone]
Survival (%) [1]: 60%
survival rate of mice compared to the control group [1]: increased

SMILES: O=c1c(O)c(-c2cc(F)ccc2F)oc2cc(Cl)ccc12 [Example 32, 7-chloro-2-(2,5-difluorophenyl)-3-hydroxy-4H-chromen-4-one]
Survival (%) [1]: 90 *** %
survival rate of mice compared to the control group [1]: increased

SMILES: COc1ccc2c(=O)c(O)c(-c3cc(F)cc(F)c3)oc2c1 [Example 39, 2-(3,5-difluorophenyl)-3-hydroxy-7-methoxy-4H-chromen-4-one]
Survival (%) [1]: 40%
survival rate of mice compared to the control group [1]: increased

SMILES: COc1c(-c2cc(F)ccc2F)oc2cc(Cl)ccc2c1=O [Example 40, 7-chloro-2-(2,5-difluorophenyl)-3-methoxy-4H-chromen-4-one]
Survival (%) [1]: 50 * %
survival rate of mice compared to the control group [1]: increased

SMILES: COc1c(-c2cc(F)cc(F)c2)oc2cc(F)ccc2c1=O [Example 44, 2-(3,5-difluorophenyl)-7-fluoro-3-methoxy-4H-chromen-4-one]
Survival (%) [1]: 60 ** %
survival rate of mice compared to the control group [1]: increased

SMILES: COc1ccc2c(=O)c(OC)c(-c3ccc(F)cc3F)oc2c1 [Example 47, 2-(2,4-difluorophenyl)-3,7-dimethoxy-4H-chromen-4-one]
Survival (%) [1]: 40 * %
survival rate of mice compared to the control group [1]: increased

SMILES: O=C(O)c1c(-c2ccc(OCCOc3ccc(-c4oc5cc(Cl)ccc5c(=O)c4C(=O)O)c(F)c3)cc2F)oc2cc(Cl)ccc2c1=O [Example 48, 2,2′-((ethane-1,2-diylbis(oxy))bis(2-fluoro-4,1-phenylene))bis(7-chloro-4-oxo-4H-chromene-3-carboxylic acid)]
degree of RIP1 ubiquitination activated by TNF (RIP1): reduced
IC50 (HEK-Blue TNF cells): 9.67 µM
level of phospho-AKT [2]: reduced
level of phospho-IKKα/β [2]: reduced
level of phospho-SAPK/JNK [2]: reduced
level of phospho-p65 [2]: reduced
IC50 (TNF-TNFR2): 3.92 µM
binding inhibitory activity, TNF and TNFR2 (TNF-TNFR2; [4]): inhibit the binding
binding inhibitory effect compared with SPD304 and Quercetin, TNF-TNFR2 (TNF-TNFR2; [4]): higher binding inhibitory effect than SPD304
IC50 (TNF-TNFR1): 3.56 µM
binding inhibitory activity, TNF and TNFR1 (TNF-TNFR1; [4]): inhibit the binding
binding inhibitory effect compared with SPD304 and Quercetin, TNF-TNFR1 (TNF-TNFR1; [4]): higher binding inhibitory effect than SPD304
Survival (%) [1]: 50 * %
survival rate of mice compared to the control group [1]: increased

IC50 (TNF-TNFR2): 22.3 µM
binding inhibitory activity, TNF and TNFR2 (TNF-TNFR2; [4]): inhibit the binding
IC50 (TNF-TNFR1): 14.5 µM
binding inhibitory activity, TNF and TNFR1 (TNF-TNFR1; [4]): inhibit the binding
SMILES: O=C(O)c1c(-c2ccc(OCCOCCOc3ccc(-c4oc5cc(Cl)ccc5c(=O)c4C(=O)O)c(F)c3)cc2F)oc2cc(Cl)ccc2c1=O [Example 51, 2,2′-(((oxybis(ethane-2,1-diyl))bis(oxy))bis(2-fluoro-4,1-phenylene))bis(7-chloro-4-oxo-4H-chromene-3-carboxylic acid)]

SMILES: O=C(NCCNC(=O)c1c(-c2cc(F)ccc2F)oc2cc(Cl)ccc2c1=O)c1c(-c2cc(F)ccc2F)oc2cc(Cl)ccc2c1=O [Example 52, N,N′-(ethane-1,2-diyl)bis(7-chloro-2-(2,5-difluorophenyl)-4-oxo-4H-chromene-3-carboxamide)]
IC50 [3]: 1.48 µM

SMILES: O=C(NCCCCNC(=O)c1c(-c2cc(F)ccc2F)oc2cc(Cl)ccc2c1=O)c1c(-c2cc(F)ccc2F)oc2cc(Cl)ccc2c1=O [Example 54, N,N′-(butane-1,4-diyl)bis(7-chloro-2-(2,5-difluorophenyl)-4-oxo-4H-chromene-3-carboxamide)]
IC50 [3]: 7.19 µM

SMILES: O=C(c1c(-c2cc(F)ccc2F)oc2cc(Cl)ccc2c1=O)N1CCN(C(=O)c2c(-c3cc(F)ccc3F)oc3cc(Cl)ccc3c2=O)CC1 [Example 55, 3,3′-(piperazine-1,4-dicarbonyl)bis(7-chloro-2-(2,5-difluorophenyl)-4H-chromen-4-one)]
IC50 [3]: 7.63 µM
